Results on one molecule are retold here after article PMC5218480 (PLoS ONE, 2017).

The test system of the assay is MV-4-11 cells. As to the kind of experiment: Gene expression microarray analysis (Affymetrix PrimeView) and GSEA. The format is cell-based, human. On the set-up: RFU PODN (11730768_x_at) / Fold change /veh PODN (11730768_x_at) / RFU LINC00158 (11744669_a_at) / Fold change /veh LINC00158 (11744669_a_at) / RFU DUSP10 (11751237_a_at) / Fold change /veh DUSP10 (11751237_a_at) / RFU ID3 (11757404_x_at) / Fold change /veh ID3 (11757404_x_at) / RFU PLEKHG5 (11737974_s_at) / Fold change /veh PLEKHG5 (11737974_s_at) / RFU LRRC4B (11730491_at) / Fold change /veh LRRC4B (11730491_at) / RFU GIMAP4 (11747438_a_at) / Fold change /veh GIMAP4 (11747438_a_at) / RFU KRT8 (11758183_x_at) / Fold change /veh KRT8 (11758183_x_at) / RFU CNN1 (11734310_a_at) / Fold change /veh CNN1 (11734310_a_at) / RFU VPS37D (11726825_at) / Fold change /veh VPS37D (11726825_at) / RFU C10orf10 (11716522_x_at) / Fold change /veh C10orf10 (11716522_x_at) / RFU KIR2DL2 /// KIR2DL4 /// KIR2DL5A /// KIR2DL5B /// KIR2DS1 /// KIR2DS2 /// KIR2DS3 /// KIR2DS4 /// KIR3DL3 /// KIR3DL3 /// KIR3DS1 (11738374_at) / Fold change /veh KIR2DL2 /// KIR2DL4 /// KIR2DL5A /// KIR2DL5B /// KIR2DS1 /// KIR2DS2 /// KIR2DS3 /// KIR2DS4 /// KIR3DL3 /// KIR3DL3 /// KIR3DS1 (11738374_at) / RFU C1QL1 (11718748_at) / Fold change /veh C1QL1 (11718748_at) / RFU TMPRSS4 (11747572_a_at) / Fold change /veh TMPRSS4 (11747572_a_at) / RFU HAMP (11756126_x_at) / Fold change /veh HAMP (11756126_x_at) / RFU RNFT2 (11725882_a_at) / Fold change /veh RNFT2 (11725882_a_at) / RFU NR4A2 (11747474_a_at) / Fold change /veh NR4A2 (11747474_a_at) / RFU ABCC12 (11746883_a_at) / Fold change /veh ABCC12 (11746883_a_at) / RFU TMEM136 (11760407_x_at) / Fold change /veh TMEM136 (11760407_x_at) / RFU CLDN22 /// WWC2 (11732394_at) / Fold change /veh CLDN22 /// WWC2 (11732394_at) / RFU HLA-DPB1 (11760878_x_at) / Fold change /veh HLA-DPB1 (11760878_x_at) / RFU SPINT1 (11716480_a_at) / Fold change /veh SPINT1 (11716480_a_at) / RFU GAP43 (11754022_s_at) / Fold change /veh GAP43 (11754022_s_at) / RFU A4GNT (11735810_at) / Fold change /veh A4GNT (11735810_at) / RFU PRB3 (11715151_x_at) / Fold change /veh PRB3 (11715151_x_at) / RFU TUBB4B (11761932_at) / Fold change /veh TUBB4B (11761932_at) / RFU CAPN14 (11732068_a_at) / Fold change /veh CAPN14 (11732068_a_at) / RFU TMCC2 (11721928_a_at) / Fold change /veh TMCC2 (11721928_a_at) / RFU IRGQ (11745062_a_at) / Fold change /veh IRGQ (11745062_a_at) / RFU FAM174B (11720279_a_at) / Fold change /veh FAM174B (11720279_a_at) / RFU TMPRSS4 (11748680_a_at) / Fold change /veh TMPRSS4 (11748680_a_at) / RFU FAM212B (11763350_a_at) / Fold change /veh FAM212B (11763350_a_at) / RFU PLEKHG5 (11743358_a_at) / Fold change /veh PLEKHG5 (11743358_a_at) / RFU ZSCAN30 (11745921_a_at) / Fold change /veh ZSCAN30 (11745921_a_at) / RFU CMKLR1 (11741424_a_at) / Fold change /veh CMKLR1 (11741424_a_at) / RFU LOC101060620 /// MAPK8IP1 (11723275_at) / Fold change /veh LOC101060620 /// MAPK8IP1 (11723275_at) / RFU SPTSSB (11747773_x_at) / Fold change /veh SPTSSB (11747773_x_at) / RFU PRSS12 (11739890_at) / Fold change /veh PRSS12 (11739890_at) / RFU BIN1 (11741810_x_at) / Fold change /veh BIN1 (11741810_x_at) / RFU WNT11 (11732464_a_at) / Fold change /veh WNT11 (11732464_a_at) / RFU C10orf10 (11716521_a_at) / Fold change /veh C10orf10 (11716521_a_at) / RFU C5orf56 (11738089_at) / Fold change /veh C5orf56 (11738089_at) / RFU CYB561 (11721691_x_at) / Fold change /veh CYB561 (11721691_x_at) / RFU ANKRD19P (11752326_a_at) / Fold change /veh ANKRD19P (11752326_a_at) / RFU OR2T12 /// OR2T33 /// OR2T8 (11738714_s_at) / Fold change /veh OR2T12 /// OR2T33 /// OR2T8 (11738714_s_at) / RFU VCAN (11748164_a_at) / Fold change /veh VCAN (11748164_a_at) / RFU JSRP1 (11732532_at) / Fold change /veh JSRP1 (11732532_at) / RFU KRTAP10-11 (11738290_x_at) / Fold change /veh KRTAP10-11 (11738290_x_at) / RFU MYO3A (11730013_a_at) / Fold change /veh MYO3A (11730013_a_at) / RFU EBF3 (11725865_a_at) / Fold change /veh EBF3 (11725865_a_at) / RFU CAMK2N1 (11719241_x_at) / Fold change /veh CAMK2N1 (11719241_x_at) / RFU C5orf56 (11738088_a_at) / Fold change /veh C5orf56 (11738088_a_at) / RFU OLFML3 (11715873_a_at) / Fold change /veh OLFML3 (11715873_a_at) / RFU LOC100653217 /// NTM (11731650_a_at) / Fold change /veh LOC100653217 /// NTM (11731650_a_at) / RFU MAPK11 (11762145_a_at) / Fold change /veh MAPK11 (11762145_a_at) / RFU FIZ1 (11724087_x_at) / Fold change /veh FIZ1 (11724087_x_at) / RFU OASL (11726364_x_at) / Fold change /veh OASL (11726364_x_at) / RFU SOX15 (11748057_x_at) / Fold change /veh SOX15 (11748057_x_at) / RFU CD79A (11719716_a_at) / Fold change /veh CD79A (11719716_a_at) / RFU HIST1H1D (11736915_at) / Fold change /veh HIST1H1D (11736915_at) / RFU CASKIN2 (11723855_a_at) / Fold change /veh CASKIN2 (11723855_a_at) / RFU LOC730098 (11760151_x_at) / Fold change /veh LOC730098 (11760151_x_at) / RFU OR4N2 (11742367_at) / Fold change /veh OR4N2 (11742367_at) / RFU PRRT2 (11749266_a_at) / Fold change /veh PRRT2 (11749266_a_at) / RFU SNX32 (11753110_a_at) / Fold change /veh SNX32 (11753110_a_at) / RFU CDHR5 (11726645_a_at) / Fold change /veh CDHR5 (11726645_a_at) / RFU RCAN1 (11760418_a_at) / Fold change /veh RCAN1 (11760418_a_at) / RFU FAM167A (11723789_a_at) / Fold change /veh FAM167A (11723789_a_at) / RFU FAM26E (11764081_at) / Fold change /veh FAM26E (11764081_at) / RFU ISYNA1 (11749810_s_at) / Fold change /veh ISYNA1 (11749810_s_at) / RFU ACY1 (11761880_at) / Fold change /veh ACY1 (11761880_at) / RFU 11764098_at / Fold change /veh 11764098_at / RFU SAMD14 (11745864_x_at) / Fold change /veh SAMD14 (11745864_x_at) / RFU NPB (11741838_a_at) / Fold change /veh NPB (11741838_a_at) / RFU TMPRSS6 (11731388_a_at) / Fold change /veh TMPRSS6 (11731388_a_at) / RFU KRTAP10-2 (11738614_at) / Fold change /veh KRTAP10-2 (11738614_at) / RFU ARHGAP8 /// PRR5-ARHGAP8 (11727945_x_at) / Fold change /veh ARHGAP8 /// PRR5-ARHGAP8 (11727945_x_at) / RFU KRTAP5-7 /// NADSYN1 (11734609_at) / Fold change /veh KRTAP5-7 /// NADSYN1 (11734609_at) / RFU RASL12 (11751679_a_at) / Fold change /veh RASL12 (11751679_a_at) / RFU CDKN2B (11736163_a_at) / Fold change /veh CDKN2B (11736163_a_at) / RFU PRF1 (11729649_at) / Fold change /veh PRF1 (11729649_at) / RFU, ZNF638 /// ZNF638-IT1 / Fold change vs veh, ZNF638 /// ZNF638-IT1 / RFU, PANK3 / Fold change vs veh, PANK3 / RFU, SH3YL1 / Fold change vs veh, SH3YL1 / RFU, ZEB2 / Fold change vs veh, ZEB2 / RFU, NRIP1 / Fold change vs veh, NRIP1 / RFU, PTTG1IP / Fold change vs veh, PTTG1IP / RFU, CAPN2 / Fold change vs veh, CAPN2 / RFU, MED14 / Fold change vs veh, MED14 / RFU, SNORA58 / Fold change vs veh, SNORA58 / RFU, C1orf63 / Fold change vs veh, C1orf63 / RFU, LRRFIP1 / Fold change vs veh, LRRFIP1 / RFU, NDUFAF7 / Fold change vs veh, NDUFAF7 / RFU, SLC12A2 / Fold change vs veh, SLC12A2 / RFU, IBTK / Fold change vs veh, IBTK / RFU, ESF1 / Fold change vs veh, ESF1 / Fold change vs veh, TMEM50B / RFU, TAOK1 / Fold change vs veh, TAOK1 / RFU, ACBD3 / Fold change vs veh, ACBD3 / RFU, TMA16 / Fold change vs veh, TMA16 / RFU, RWDD3 / Fold change vs veh, RWDD3 / RFU, BCAT1 / Fold change vs veh, BCAT1 / RFU, EDEM3 / Fold change vs veh, EDEM3 / RFU, TMEM33 / Fold change vs veh, TMEM33 / RFU, WDR75 / Fold change vs veh, WDR75 / RFU, AHCTF1 / Fold change vs veh, AHCTF1 / RFU, TFRC / Fold change vs veh, TFRC / RFU, ZDHHC17 / Fold change vs veh, ZDHHC17 / RFU, NOM1 / Fold change vs veh, NOM1 / RFU, ARL8B / Fold change vs veh, ARL8B / RFU, ZBTB11 / Fold change vs veh, ZBTB11 / RFU, TAMM41 / Fold change vs veh, TAMM41 / RFU, KIAA1704 /// LOC100996395 / Fold change vs veh, KIAA1704 /// LOC100996395 / RFU, ING1 / Fold change vs veh, ING1 / RFU, TRMT61B / Fold change vs veh, TRMT61B / RFU, FUBP3 / Fold change vs veh, FUBP3 / RFU, TP53 / Fold change vs veh, TP53 / RFU, TNKS2 / Fold change vs veh, TNKS2 / RFU, ZFP14 / Fold change vs veh, ZFP14 / RFU, ACTR2 / Fold change vs veh, ACTR2 / RFU, PPP3R1 / Fold change vs veh, PPP3R1 / RFU, PIK3R1 / Fold change vs veh, PIK3R1 / RFU, HNRNPA1 / Fold change vs veh, HNRNPA1 / RFU, RNF170 / Fold change vs veh, RNF170 / RFU, ZNF28 / Fold change vs veh, ZNF28 / RFU, RNGTT / Fold change vs veh, RNGTT / RFU, OGT / Fold change vs veh, OGT / RFU, BRD1 / Fold change vs veh, BRD1 / RFU, MARS / Fold change vs veh, MARS / RFU, ZNF655 / Fold change vs veh, ZNF655 / RFU, FAHD1 / Fold change vs veh, FAHD1 / RFU, BDP1 / Fold change vs veh, BDP1 / RFU, LRRCC1 / Fold change vs veh, LRRCC1 / RFU, ARID1A / Fold change vs veh, ARID1A / RFU, ZNF146 / Fold change vs veh, ZNF146 / RFU, ZNF330 / Fold change vs veh, ZNF330 / RFU, GPN3 / Fold change vs veh, GPN3 / RFU, C9orf123 / Fold change vs veh, C9orf123 / RFU, N4BP2L2 / Fold change vs veh, N4BP2L2 / RFU, ARFIP1 / Fold change vs veh, ARFIP1 / RFU, FAM179B / Fold change vs veh, FAM179B / RFU, BCL10 / Fold change vs veh, BCL10 / RFU, UHRF1BP1L / Fold change vs veh, UHRF1BP1L / RFU, BET1 / Fold change vs veh, BET1 / RFU, CNOT2 / Fold change vs veh, CNOT2 / RFU, ZNF268 / Fold change vs veh, ZNF268 / Fold change vs veh, ZNF507 / RFU, DGCR2 / Fold change vs veh, DGCR2 / RFU, WDSUB1 / Fold change vs veh, WDSUB1 / Fold change vs veh, HSP90B1 /// MIR3652 / RFU, ADSS / Fold change vs veh, ADSS / RFU, GK / Fold change vs veh, GK / RFU, ZNF148 / Fold change vs veh, ZNF148 / RFU, TAF9 / Fold change vs veh, TAF9 / RFU, SLC1A5 / Fold change vs veh, SLC1A5 / RFU, SLMO2 / Fold change vs veh, SLMO2 / RFU, ABCC4 / Fold change vs veh, ABCC4 / RFU, LOC101060439 /// RAP1B / Fold change vs veh, LOC101060439 /// RAP1B / RFU, RFX7 / Fold change vs veh, RFX7 / RFU, GTPBP10 / Fold change vs veh, GTPBP10 / RFU, CNEP1R1 / Fold change vs veh, CNEP1R1 / RFU, BIVM-ERCC5 /// ERCC5 / Fold change vs veh, BIVM-ERCC5 /// ERCC5 / RFU, ILF3 / Fold change vs veh, ILF3 / RFU 11762660_at / Fold change /veh 11762660_at / RFU VCAN (11757783_s_at) / Fold change /veh VCAN (11757783_s_at) / RFU DDX43 (11728927_at) / Fold change /veh DDX43 (11728927_at) / RFU KRT8 (11758188_x_at) / Fold change /veh KRT8 (11758188_x_at) / RFU NKD1 (11759106_at) / Fold change /veh NKD1 (11759106_at) / RFU SRD5A1 (11742802_a_at) / Fold change /veh SRD5A1 (11742802_a_at) / RFU TPSAB1 /// TPSB2 (11721975_s_at) / Fold change /veh TPSAB1 /// TPSB2 (11721975_s_at) / RFU GSTM3 (11746129_a_at) / Fold change /veh GSTM3 (11746129_a_at) / RFU IL23R (11737362_x_at) / Fold change /veh IL23R (11737362_x_at) / RFU TMEM51 (11727254_a_at) / Fold change /veh TMEM51 (11727254_a_at) / RFU PIWIL2 (11732686_x_at) / Fold change /veh PIWIL2 (11732686_x_at) / RFU ORM1 (11744905_x_at) / Fold change /veh ORM1 (11744905_x_at) / RFU CCDC152 (11743942_at) / Fold change /veh CCDC152 (11743942_at) / RFU ECM1 (11717891_a_at) / Fold change /veh ECM1 (11717891_a_at) / RFU IL23R (11748794_a_at) / Fold change /veh IL23R (11748794_a_at) / RFU TNFAIP8L3 (11732012_x_at) / Fold change /veh TNFAIP8L3 (11732012_x_at) / RFU MBOAT4 (11741988_at) / Fold change /veh MBOAT4 (11741988_at) / RFU 11764193_at / Fold change /veh 11764193_at / RFU TMEM53 (11763286_at) / Fold change /veh TMEM53 (11763286_at) / RFU MAGEB2 (11727129_at) / Fold change /veh MAGEB2 (11727129_at) / RFU TMEM200A (11744735_a_at) / Fold change /veh TMEM200A (11744735_a_at) / RFU CCDC152 (11751479_a_at) / Fold change /veh CCDC152 (11751479_a_at) / RFU FAM211A (11726209_a_at) / Fold change /veh FAM211A (11726209_a_at) / RFU RGS16 (11746705_a_at) / Fold change /veh RGS16 (11746705_a_at) / RFU VCAN (11755009_s_at) / Fold change /veh VCAN (11755009_s_at) / RFU RHOB (11743442_s_at) / Fold change /veh RHOB (11743442_s_at) / RFU RGS16 (11720943_a_at) / Fold change /veh RGS16 (11720943_a_at) / RFU RGS16 (11720944_at) / Fold change /veh RGS16 (11720944_at) / RFU, VPS4B / Fold change vs veh, VPS4B / RFU, CREB1 / Fold change vs veh, CREB1 / RFU, DNAJC13 / Fold change vs veh, DNAJC13 / RFU, GNAQ / Fold change vs veh, GNAQ / RFU, CDK5R1 / Fold change vs veh, CDK5R1 / RFU, ZRANB3 / Fold change vs veh, ZRANB3 / RFU, CUL4A / Fold change vs veh, CUL4A / RFU, CCNY / Fold change vs veh, CCNY / RFU, UFL1 / Fold change vs veh, UFL1 / RFU, COG3 / Fold change vs veh, COG3 / RFU, DIAPH2 / Fold change vs veh, DIAPH2 / RFU, SKA2 / Fold change vs veh, SKA2 / RFU, AFF3 / Fold change vs veh, AFF3 / RFU, LMF1 / Fold change vs veh, LMF1 / RFU, IPO11 / Fold change vs veh, IPO11 / RFU, DFFB / Fold change vs veh, DFFB / RFU, FOXP1 / Fold change vs veh, FOXP1 / RFU, CARD8 / Fold change vs veh, CARD8 / RFU, STRN3 / Fold change vs veh, STRN3 / RFU, ADK / Fold change vs veh, ADK / RFU, RASSF2 / Fold change vs veh, RASSF2 / RFU, WIPF1 / Fold change vs veh, WIPF1 / RFU, LARP1B / Fold change vs veh, LARP1B / RFU, RASA1 / Fold change vs veh, RASA1 / RFU, RB1 / Fold change vs veh, RB1 / RFU, PPFIA1 / Fold change vs veh, PPFIA1 / RFU, MAT2A / Fold change vs veh, MAT2A / RFU, CCT5 / Fold change vs veh, CCT5 / RFU, WDR92 / Fold change vs veh, WDR92 / RFU, CUX1 / Fold change vs veh, CUX1 / RFU, TTC7A / Fold change vs veh, TTC7A / RFU, TMEM135 / Fold change vs veh, TMEM135 / RFU, DEPTOR / Fold change vs veh, DEPTOR / RFU, CPM / Fold change vs veh, CPM / RFU, DNAJB6 / Fold change vs veh, DNAJB6 / RFU, CACNA2D3 / Fold change vs veh, CACNA2D3 / RFU, DTX4 / Fold change vs veh, DTX4 / RFU, TFCP2 / Fold change vs veh, TFCP2 / RFU, GMCL1 /// GMCL1P1 / Fold change vs veh, GMCL1 /// GMCL1P1 / RFU, AEBP2 / Fold change vs veh, AEBP2 / RFU, SNHG1 /// SNORD22 /// SNORD25 /// SNORD26 /// SNORD27 /// SNORD28 /// SNORD29 /// SNORD31 / Fold change vs veh, SNHG1 /// SNORD22 /// SNORD25 /// SNORD26 /// SNORD27 /// SNORD28 /// SNORD29 /// SNORD31 / Fold change (Aza/veh), C12orf56 (ProbeSet 11735607_a_at) / Fold change (ACY-1035/veh), C12orf56 (ProbeSet 11735607_a_at) / Fold change (Aza/veh), FGFR1OP (ProbeSet 11751329_s_at) / Fold change (ACY-1035/veh), FGFR1OP (ProbeSet 11751329_s_at) / Fold change (Aza/veh), VPS36 (ProbeSet 11739960_a_at) / Fold change (ACY-1035/veh), VPS36 (ProbeSet 11739960_a_at) / RFU SYPL1 (11715823_x_at) / Fold change /veh SYPL1 (11715823_x_at) / RFU IGFBP7 (11715501_s_at) / Fold change /veh IGFBP7 (11715501_s_at) / RFU REEP3 (11722064_at) / Fold change /veh REEP3 (11722064_at) / RFU IGLL1 (11728026_x_at) / Fold change /veh IGLL1 (11728026_x_at): dose or concentration left out as unconfirmed. As to conditions: MV-4-11 cells, 48 hours.

Structures are written as SMILES.

As for `Nc1ncn([C@@H]2O[C@H](CO)[C@@H](O)[C@H]2O)c(=O)n1` [azacitidine], the “Fold change /veh KRT8 (11758188_x_at)” value is 1.26.
